Data: paper PMC6881254, “ABCA1 transporter reduces amphotericin B cytotoxicity in mammalian cells” (Cellular and Molecular Life Sciences: CMLS, 2019)
Values after ≈ are worked out from the molar mass of the structure shown. Where two headings read alike, the source gives them in different places.

Tests used:
CHO-K1 wild-type cells = experiment: AmB cytotoxicity, MTT assay in CHO-K1 wild-type cells; format: cell-based, Chinese hamster; conditions: Cricetulus griseus, AmB 3 h, read-out: IC50 (cell viability, MTT)
Description: (§1) A1G and MMG cell lines, mock and GW3965-treated macrophages were seeded in triplicate in 96-well plates at 1 × 10^4 cells/well for CHO cells and 2 × 10^4 cells for Raw 264.7 macrophages and incubated in complete Ham’s F-12 medium at 37 °C, 5% CO2 overnight to allow the cells to attach to the plate. The medium was then removed, AmB was added in complete Ham’s F-12 medium (or in ΔFBS medium, see next paragraph) in different concentrations (from 0 to 40 µg/mL) and cells were incubated for 3 h at 37 °C. For probucol treatment, the cells were preincubated with 10 µM probucol in complete Ham’s F-12 medium at 37 °C, 5% CO2 for 2 h. Then, the medium was removed and AmB was added in different concentrations (from 0 to 40 µg/mL) in complete Ham’s F-12 medium containing 10 µM probucol and cells were incubated for additional 3 h at 37 °C, 5% CO2. After incubation, the medium was removed and 3-[4,5-dimethylthiazol-2-yl]-2,5-diphenyltetrazolium bromide (MTT, 0.5 mg/mL, Sigma-Aldrich) in complete Ham’s F-12 was added. […] Plates were shaken for 10 min before reading them on a UVM 340 microplate reader (Biogenet) at 550 nm with a reference wavelength of 630 nm. […]
(§2) All mathematical and statistical analysis was performed using the GraphPad Prism 7 software package (GraphPad). […] The statistical significance of differences was assessed either by two-way ANOVA or by t test. […]

A1G cells [1] = experiment: AmB cytotoxicity, MTT assay in A1G cells (CHO-K1 stably expressing ABCA1-GFP); format: cell-based, Chinese hamster; conditions: Cricetulus griseus, ± SE
Description: (§3) A1G and MMG cell lines, mock and GW3965-treated macrophages were seeded in triplicate in 96-well plates at 1 × 10^4 cells/well for CHO cells and 2 × 10^4 cells for Raw 264.7 macrophages and incubated in complete Ham’s F-12 medium at 37 °C, 5% CO2 overnight to allow the cells to attach to the plate. […] For probucol treatment, the cells were preincubated with 10 µM probucol in complete Ham’s F-12 medium at 37 °C, 5% CO2 for 2 h. Then, the medium was removed and AmB was added in different concentrations (from 0 to 40 µg/mL) in complete Ham’s F-12 medium containing 10 µM probucol and cells were incubated for additional 3 h at 37 °C, 5% CO2. After incubation, the medium was removed and 3-[4,5-dimethylthiazol-2-yl]-2,5-diphenyltetrazolium bromide (MTT, 0.5 mg/mL, Sigma-Aldrich) in complete Ham’s F-12 was added. Cells were incubated for 4 h at 37 °C, then MTT was removed carefully and the formazan crystals were dissolved in DMSO. Plates were shaken for 10 min before reading them on a UVM 340 microplate reader (Biogenet) at 550 nm with a reference wavelength of 630 nm. The cell viability was estimated as the percentage of the control, which was the cells untreated with any agents (100%).
(§4) To lower the cholesterol content in the cells, A1G and MMG cell lines were seeded at either 1 × 10^4 cells/well in a 96-well plate (cytotoxicity) or 4 × 10^5 cells/well (cholesterol content) in a 6-well plate in complete Ham’s F-12 medium for 8 h to allow the cells to attach to the plate. Cells were then washed three times with Ham’s F-12 medium supplemented with delipidated serum (Biowest) (ΔFBS medium) and incubated with 10 µM zaragozic acid (ZA) in ΔFBS medium for 16 h at 37 °C, 5% CO2. To reload the plasma membrane with cholesterol, cells after ZA treatment were washed three times with ΔFBS medium and incubated with 100 µM cholesterol–1 mM methyl-β-cyclodextrin complex in ΔFBS medium for 30 min at 37 °C, 5% CO2. As a control, cells were incubated for 16 h with only ΔFBS medium at 37 °C, 5% CO2. After treatment, cells were either processed with AmB cytotoxicity MTT assay or lysed as described for cholesterol content measurement.
(§5) All mathematical and statistical analysis was performed using the GraphPad Prism 7 software package (GraphPad). For IC50 value determination, a nonlinear fit (inhibitor vs. normalized response with variable slope) of cell viability in the function of AmB decreased concentrations was applied. The statistical significance of differences was assessed either by two-way ANOVA or by t test. For all tests, the significance level (alpha, α) was set to 0.05. Significant differences are indicated in individual graphs with p values as follows: ****p < 0.0001, ***p < 0.001, **p < 0.01, *p < […]. If the differences were not significant, nothing is stated. For each result, an appropriate description of the analysis appears in the figure legend.

MMG cells [2] = experiment: [3H]-cholesterol efflux to AmB as acceptor in MMG cells; format: cell-based, Chinese hamster; conditions: 20 µg/mL AmB
Description: (§6) The [^3H]-cholesterol efflux protocol was adapted from Yang and Gelissen. Briefly, A1G and MMG cells were seeded in 0.5 mL of complete Ham’s F12 medium at 5 × 10^4 cells/well in 24-well plates and grown overnight at 37 °C, 5% CO2. The next day, the cell culture medium was replaced either with 0.25 mL of complete Ham’s F12 medium or complete Ham’s F12 medium containing 1 µCi/mL of [^3H]-cholesterol (Perkin Elmer) and incubated for 24 h at 37 °C, 5% CO2. On the last day, the cell medium was removed, and the cells were washed three times with PBS buffer (with intermediate 15 min incubation in PBS buffer). Afterwards, cells were incubated for 3 h in 0.25 mL of complete Ham’s F12 medium containing (or not, in controls) 20 µg/mL of AmB at 37 °C, 5% CO2. […] One hundred fifty microliters of each of cell medium and cell lysate were added to 5 mL of Ecolite + scintillation cocktail (MPBIO) and radioactivity was counted in CPM mode using a Beckman LS analyzer (Beckman Coulter). After subtraction of background radioactivity, the percentage of [^3H]-cholesterol efflux was calculated according to the formula: (CPM in media)/[(CPM in media) + (CPM in cells)].

MMG cells [3] = experiment: AmB cytotoxicity, MTT assay in MMG cells (CHO-K1 stably expressing non-active ABCA1MM-GFP); format: cell-based, Chinese hamster; conditions: Cricetulus griseus, ± SE
Description: as §3, §4, §5

Raw 264.7 macrophages = experiment: AmB cytotoxicity, MTT assay in Raw 264.7 macrophages; format: cell-based, murine; conditions: Mus musculus, RAW264.7, AmB 3 h, read-out: IC50 (cell viability, MTT)
Description: as §1, with “CO2.” for “CO2. After incubation, the medium was removed and 3-[4,5-dimethylthiazol-2-yl]-2,5-diphenyltetrazolium bromide (MTT, 0.5 mg/mL, Sigma-Aldrich) in complete Ham’s F-12 was added.”
as §2
Cells were exposed to increased concentrations of AmB, ranging from 0 to 40 µg/mL, for 3 h and then the viability was analyzed by MTT assay. […]

A1G cells [4] = experiment: [3H]-cholesterol efflux to AmB as acceptor in A1G cells; format: cell-based, Chinese hamster; conditions: 20 µg/mL AmB
Description: as §6

A1G and MMG cell lines = experiment: Total cellular cholesterol content (Amplex Red) after zaragozic acid treatment; format: cell-based, Chinese hamster; conditions: 10 µM ZA in ΔFBS medium 16 h, compared with non-ZA-treated cells cultured in ΔFBS medium
Description: To lower the cholesterol content in the cells, A1G and MMG cell lines were seeded at either 1 × 10^4 cells/well in a 96-well plate (cytotoxicity) or 4 × 10^5 cells/well (cholesterol content) in a 6-well plate in complete Ham’s F-12 medium for 8 h to allow the cells to attach to the plate. Cells were then washed three times with Ham’s F-12 medium supplemented with delipidated serum (Biowest) (ΔFBS medium) and incubated with 10 µM zaragozic acid (ZA) in ΔFBS medium for 16 h at 37 °C, 5% CO2. […]
The cells were harvested, washed three times with PBS and lysed with RIPA buffer (25 mM HEPES, pH 7.4, 150 mM NaCl, 1% NP40, 10 mM MgCl2, 1 mM EDTA, 2% glycerol, protease and phosphatase inhibitor cocktail) for 30 min on ice. […] Total cellular cholesterol level was determined enzymatically by cholesterol oxidase using the Amplex Red Cholesterol Assay Kit (Thermo Fisher Scientific) according to the manufacturer’s recommendations. […] The protein concentration was measured by BCA Assay Kit (Sigma-Aldrich). […] Fluorescence was measured using excitation at 560 nm and emission detection at 590 nm with a Cary Eclipse fluorescence microplate reader (Agilent Technologies). […] The final cholesterol content was calculated in ng of cholesterol per µg of protein.

Compound	IC50 (CHO-K1 wild-type cells) [µg/mL]	IC50 (A1G cells [1]; CHO-K1, 3 h, A1G, complete Ham's F12 medium, AmB 3 h) [µg/mL]	IC50 (A1G cells [1]; CHO-K1, 6 h, A1G, complete Ham's F12 medium, 6 h AmB) [µg/mL]	IC50 (A1G cells [1]; CHO-K1, 16 h, A1G, complete Ham's F12 medium, 16 h AmB) [µg/mL]	IC50 (A1G cells [1]; CHO-K1, 16 h, A1G, ΔFBS medium + 10 µM zaragozic acid (ZA) 16 h) [µg/mL]	IC50 (A1G cells [1]; CHO-K1, A1G, complete Ham's F12 + 10 µM probucol (2 h pretreatment), AmB 3 h) [µg/mL]	IC50 (A1G cells [1]; CHO-K1, A1G, ΔFBS medium (delipidated serum)) [µg/mL]	IC50 (A1G cells [1]; CHO-K1, A1G, ΔFBS medium + ZA, reloaded with cholesterol (MβCD complex)) [µg/mL]	[3H]-cholesterol efflux to AmB (MMG cells [2]) [%]	IC50 (MMG cells [3]; CHO-K1, 3 h, MMG, complete Ham's F12 medium, AmB 3 h) [µg/mL]	IC50 (MMG cells [3]; CHO-K1, 6 h, MMG, complete Ham's F12 medium, 6 h AmB) [µg/mL]	IC50 (MMG cells [3]; CHO-K1, 16 h, MMG, complete Ham's F12 medium, 16 h AmB) [µg/mL]	IC50 (MMG cells [3]; CHO-K1, 16 h, MMG, ΔFBS medium + 10 µM zaragozic acid (ZA) 16 h) [µg/mL]	IC50 (MMG cells [3]; CHO-K1, MMG, complete Ham's F12 + 10 µM probucol (2 h pretreatment), AmB 3 h) [µg/mL]	IC50 (MMG cells [3]; CHO-K1, MMG, ΔFBS medium (delipidated serum)) [µg/mL]	IC50 (MMG cells [3]; CHO-K1, MMG, ΔFBS medium + ZA, reloaded with cholesterol (MβCD complex)) [µg/mL]	IC50 (Raw 264.7 macrophages; Raw 264.7 cells induced with 1 µM GW3965 for 24 h (ABCA1 expression)) [µg/mL]	IC50 (Raw 264.7 macrophages; mock (DMSO) control Raw 264.7 cells) [µg/mL]	[3H]-cholesterol efflux to AmB (A1G cells [4]) [%]	decrease of total cellular cholesterol content (A1G and MMG cell lines)
C[C@@H]1[C@H](O)[C@@H](C)/C=C/C=C/C=C/C=C/C=C/C=C/C=C/[C@H](O[C@@H]2O[C@H](C)[C@@H](O)[C@H](N)[C@@H]2O)C[C@@H]2O[C@](O)(C[C@@H](O)C[C@@H](O)[C@H](O)CC[C@@H](O)C[C@@H](O)CC(=O)O[C@H]1C)C[C@H](O)[C@H]2C(=O)O [AmB, Amphotericin B]	16.8 (≈ 18.1 µM)	39.2 ± 4.49 (≈ 42.4 µM)	30.9 ± 1.66 (≈ 33.5 µM)	11.4 ± 0.35 (≈ 12.4 µM)	9.75 ± 0.53	14.4 ± 0.36	21.2 ± 1.09 (≈ 22.9 µM)	18.9 ± 0.77	0.3	13.1 ± 1 (≈ 14.2 µM)	10.6 ± 0.48 (≈ 11.5 µM)	6.65 ± 0.28 (≈ 7.2 µM)	10 ± 0.67	9.47 ± 0.31	10.2 ± 0.42 (≈ 11 µM)	6.42 ± 0.38	14.6 (≈ 15.7 µM)	6.18 (≈ 6.69 µM)	5.1	–
C=C(CC[C@]12O[C@H](C(=O)O)[C@@](O)(C(=O)O)[C@](C(=O)O)(O1)[C@H](OC(=O)/C=C/[C@@H](C)C[C@@H](C)CC)[C@H]2O)[C@@H](OC(C)=O)[C@H](C)Cc1ccccc1 [zaragozic acid]	–	–	–	–	–	–	–	–	–	–	–	–	–	–	–	–	–	–	–	approximately 50%
